The values that follow come from patent US20190308956A1, “PIPERAZINE DERIVATIVES AS ANTIVIRAL AGENTS WITH INCREASED THERAPEUTIC ACTIVITY” (SERVICIO ANDALUZ DE SALUD, priority 2016, published 2019).

In general, CC50 refers to the concentration giving 50% cytotoxicity. The low end stands for greater toxicity to the cells, the high end for lower toxicity to the cells. The term inhibition denotes the change of the read-out against control, counted positive when it falls.

A short description of series [1]: Cytotoxicity assay (alamarBlue cell viability). Type of series: cell-based, Human. The following applies: human, A549 cells. The procedure: 1.4. Cytotoxicity assay. The cytotoxicity of the compounds was measured using the AlarmBlue cell viability assay (Invitrogen) according to the manufacturer's instructions. Actively dividing A549 cells were incubated with compounds for 48 h. After the incubation the alamarBlue reagent was added to the cells ( 1/10th alamarBlue reagent in culture medium) for an extra 4 h. The 50% cell cytotoxic concentration (CC50) of the molecules was calculated according to Cheng et al.42 The selectivity index (SI) was evaluated as the ratio of CC50 to IC50, where the IC50 is defined as the concentration of compound that inhibits HAdV infection by 50%.

The subject of a further series is HAdV5-GFP. Description: Plaque assay, HAdV5-GFP in 293β5 cells. Type of series: cell-based. The note with it: read-out: Percentage of plaque formation inhibition, HAdV5-GFP, 10 μM, 293β5 cell line. The procedure: 1.5. Plaque assay. For low MOI infections, active compounds were further evaluated in a plaque assay. 293β5 cells were seeded in 6-well plates at 4×10^5 cells per well in duplicate for each condition. When cells reached 80-90% confluency, they were infected with HAdV5-GFP or HAdV16-GFP (0.06 vp/cell) and rocked for 2 h at 37° C. The inoculum was removed and the cells were washed once with PBS. The cells were then carefully overlaid with 4 ml/well of equal parts of 1.6% […] Difco Agar Noble (Becton, Dickinson & Co, Sparks, MD) and 2× EMEM (BioWhittaker) supplemented with 2x penicillin/streptomycin, 2× L-glutamine and 10% FBS. The mixture also contained compound in concentrations ranging from 5 to 1 μM. Following incubation for 7 days at 37° C., plates were scanned with a Typhoon 9410 imager (GE Healthcare Life Sciences), and plaques were quantified with ImageJ.43
For the plaque assay 293β5 cells were infected with HAdV5-GFP (in the presence of compound at 10 μM) (Table 2). From this generation of compounds, our primary screening identified 4 compounds (12, 13, 22 and 25) that inhibited HAdV5-GFP plaque formation >90% compared to a control with the same volume of DMSO.

Series [2] has as its system Acinetobacter baumannii strains resistant to colistine. Description: Minimal inhibitory concentration (MIC), microdilution in MHBII. The following applies: 5×10^5 CFU/ml, 18 h; for CMI (MIC) Ab 21R: strain Ab 21R; for CMI (MIC) Ab 21R / CMI (MIC) Ab 22P: MHBII; for CMI (MIC) Ab 24: strain Ab 24, MHBII; for CMI (MIC) Ab 22P: strain Ab 22P. Type of series: cell-based. The source says: (§1) All of the strains used were Acinetobacter baumannii strains resistant to colistine: Resistance (R)≥4 Sensibility (S)≤2—All of these strains have been disclosed in Valencia R, Arroyo L A, Conde M, Aldana J M, Torres M J, Fernandez-Cuenca F, et al. Nosocomial outbreak of infection with pan-drug-resistant Acinetobacter baumannii in a tertiary care university hospital. Infection control and hospital epidemiology. 2009; 30(3):257-63. The specific strains used were the following: 1, 10, 11, 14, 16, 17, 19, 20, 21R, 22P, 24, 99 and 113.
Microdilution in cell medium Mueller Hinton Broth II (MHBII). This technique was carried out solely in those piperazines which presented inhibitory activity in the screening study.
We used decreasing concentrations of each piperazine derivative (from 50 μM -0.05 μM) in a concentration of 5×10^5 CFU/ml of each strain of A. baumannii in 96 well plates. These plates were incubated for 18 hours at a temperature 37° C.
In general terms: In broth dilution the organism is exposed to a series of concentrations in liquid medium.

The test system is the same in series [3]. Description: Screening of inhibition of bacterial growth at 50 μM. The series is classed as cell-based. The note with it: 5×10^5 CFU/ml, 18 h; for Screening, growth inhibition Ab 21R: strain Ab 21R; for Screening, growth inhibition Ab 21R / Screening, growth inhibition Ab 22P: 50 μM; for Screening, growth inhibition Ab 24: strain Ab 24, 50 μM; for Screening, growth inhibition Ab 22P: strain Ab 22P.
Source text: as §1
Evaluation of the inhibition of the bacterial growth of the 4 families of piperazines derivatives was performed by using a final concentration of 50 μM of each piperazine derivative in a concentration of 5×10^5 CFU/ml of each strain of A. baumannii in 96-well plates.
These plates were incubated for 18 hours at 37° C.

Some results are limits rather than exact numbers.

In series [1] (48 h), `CC1CN(C(=O)OC(C)(C)C)CCN1C(=S)Nc1ccc([N+](=O)[O-])cc1` (centres unmarked) [Compound 12, 4-tert-Butoxycarbonyl-2-methyl-1-[(4-nitrophenyl)aminothiocarbonyl]piperazine] came in with a CC50 at 48 h of 26.3 ± 1.59 µM. Moreover, the inhibition at 10 µM in the series with HAdV5-GFP was greater than 90%.
For `CC1CN(C(=O)OC(C)(C)C)CCN1C(=O)Nc1ccc([N+](=O)[O-])cc1` (centres unmarked) [Compound 13, 4-tert-Butoxycarbonyl-2-methyl-1-[(4-nitrophenyl)aminocarbonyl]piperazine], in that order: 143 ± 3.29 µM and greater than 90%.
As to `COc1ccc(NC(=O)N2CCN(C(=O)OC(C)(C)C)CC2C)cc1` (centres unmarked) [Compound 14, 4-tert-Butoxycarbonyl-1-[(4-methoxyphenyl)aminocarbonyl]-2-methylpiperazine], the inhibition at 10 µM in the series with HAdV5-GFP came to 49.1 ± 1.39%.
Still for that read-out and setting: the result for `CC1CN(C(=O)C(C)(C)C)CCN1C(=S)Nc1ccc([N+](=O)[O-])cc1` (centres unmarked) [Compound 17, 2-Methyl-1-[(4-nitrophenyl)aminothiocarbonyl]-4-pivaloylpiperazine] reads 64 ± 8.97%; that for `CC1CN(C(=O)C(C)(C)C)CCN1C(=O)Nc1ccc([N+](=O)[O-])cc1` (centres unmarked) [Compound 18, 2-Methyl-1-[(4-nitrophenyl)aminocarbonyl]-4-pivaloylpiperazine], 0%.
On the same count and under the same terms, the result for `COc1ccc(NC(=O)N2CCN(C(=O)C(C)(C)C)CC2C)cc1` (centres unmarked) [Compound 19, 1-[(4-Methoxyphenyl)aminocarbonyl]-2-methyl-4-pivaloylpiperazine] reads 0%; that for `COc1ccc(C(=O)N2CCN(C(=O)c3ccccc3)CC2C)cc1` (centres unmarked) [Compound 21, 4-Benzoyl-1-(4-methoxybenzoyl)-2-methylpiperazine], 0%.
The compound `CC1CN(C(=O)c2ccccc2)CCN1C(=S)Nc1ccc([N+](=O)[O-])cc1` (centres unmarked) [Compound 22, 4-Benzoyl-2-methyl-1-[(4-nitrophenyl)aminothiocarbonyl]piperazine] came in with a CC50 at 48 h in series [1] (48 h) of 31.4 ± 2.82 µM. In the series on HAdV5-GFP, the inhibition at 10 µM was greater than 90%.
As for `CC1CN(C(=O)c2ccccc2)CCN1C(=O)Nc1ccc([N+](=O)[O-])cc1` (centres unmarked) [Compound 23, 4-Benzoyl-2-methyl-1-[(4-nitrophenyl)aminocarbonyl]piperazine], in the series on HAdV5-GFP, the inhibition at 10 µM was 71.7 ± 3.43%.
As for `COc1ccc(NC(=O)N2CCN(C(=O)c3ccccc3)CC2C)cc1` (centres unmarked) [Compound 24, 4-Benzoyl-1-[(4-methoxyphenyl)aminocarbonyl]-2-methylpiperazine], the inhibition at 10 µM in the series on HAdV5-GFP was found to be 0%.
In turn, `CC1CN(C(=O)c2cc3ccccc3o2)CCN1C(=O)Nc1ccc([N+](=O)[O-])cc1` (centres unmarked) [Compound 25, 4-(Benzofuran-2-carbonyl)-2-methyl-1-[(4-nitrophenyl)aminocarbonyl]piperazine] gave a CC50 at 48 h in series [1] (48 h) of 51.1 ± 7.35 µM. Also, the inhibition at 10 µM with HAdV5-GFP is greater than 90%.
Regarding `CC1CN(C(=O)OC(C)(C)C)CCN1C(=O)Nc1ccc(Cl)cc1` (centres unmarked) [Compound 27, 4-tert-Butoxycarbonyl-1-[(4-chlorophenyl)aminocarbonyl]-2-methylpiperazine], in series [1] (48 h), the CC50 at 48 h turned out to be 150 ± 1.01 µM. For the same compound, in the series on HAdV5-GFP, the inhibition at 10 µM was 62.03 ± 0.26%.
The compound `CC1CN(C(=O)OC(C)(C)C)CCN1C(=O)Nc1ccc(C(F)(F)F)cc1` (centres unmarked) [Compound 28, 4-tert-Butoxycarbonyl-2-methyl-1-[(4-trifluoromethylphenyl)aminocarbonyl]piperazine] yielded a CC50 at 48 h in series [1] (48 h) of 137 ± 24.3 µM. The inhibition at 10 µM with HAdV5-GFP amounted to 30.6 ± 14.6%.
For `CC1CN(C(=O)c2cc3ccccc3o2)CCN1C(=O)Nc1ccc(Cl)cc1` (centres unmarked) [Compound 32, 4-(Benzofuran-2-carbonyl)-1-[(4-chlorophenyl)aminocarbonyl]-2-methylpiperazine], in that order: 144 ± 20.8 µM and 6.69 ± 11.1%.
For `CC1CN(C(=O)c2cc3ccccc3o2)CCN1C(=O)Nc1ccc(C(F)(F)F)cc1` (centres unmarked) [Compound 33, 4-(Benzofuran-2-carbonyl)-2-methyl-1-[(4-trifluoromethylphenyl)aminocarbonyl]piperazine], in that order: 82.2 ± 24.3 µM and 91 to 100%.
For `CC1CN(C(=O)c2cc3ccccc3o2)CCN1C(=O)Nc1ccc(C#N)cc1` (centres unmarked) [Compound 34, 4-(Benzofuran-2-carbonyl)-1-[(4-cyanophenyl)aminocarbonyl]-2-methylpiperazine], in that order: 118 ± 30.2 µM and 83.2 ± 1.55%.
In the case of `CC1CN(C(=O)c2cc3ccccc3o2)CCN1C(=O)Nc1ccccc1[N+](=O)[O-]` (centres unmarked) [Compound 36, 4-(Benzofuran-2-carbonyl)-2-methyl-1-[(2-nitrophenyl)aminocarbonyl]piperazine], the values for the CC50 at 48 h in series [1] and in series [1] (48 h) were greater than 200 µM and 203 ± 4.09 µM, respectively. In addition, the inhibition at 10 µM in the series on HAdV5-GFP was 91 to 100%.
Take `CC1CN(C(=O)c2cc3ccccc3o2)CCN1C(=O)Nc1ccccc1Br` (centres unmarked) [Compound 38, 4-(Benzofuran-2-carbonyl)-1-[(2-bromophenyl)aminocarbonyl]-2-methylpiperazine]: in the series with HAdV5-GFP, the inhibition at 10 µM came to 55.8 ± 19.5%.
Still for that read-out and setting: the result for `COc1ccccc1NC(=O)N1CCN(C(=O)c2cc3ccccc3o2)CC1C` (centres unmarked) [Compound 40, 4-(Benzofuran-2-carbonyl)-1-[(2-methoxyphenyl)aminocarbonyl]-2-methylpiperazine] reads 16.4 ± 5.81%.
On the same count and under the same terms, to `CC1CN(C(=O)c2cc3ccccc3o2)CCN1C(=O)Nc1ccccc1` (centres unmarked) [Compound 41, 4-(Benzofuran-2-carbonyl)-2-methyl-1-(phenylaminocarbonyl)piperazine] belongs 11.2 ± 26.5%.
Compound `CC(C)(C)OC(=O)N1CCN(C(=O)Nc2ccc(Cl)cc2)C(c2ccccc2)C1` (centres unmarked) [Compound 47, 4-tert-Butoxycarbonyl-1-[(4-chlorophenyl)aminocarbonyl]-2-phenylpiperazine] returned a CC50 at 48 h in series [1] (48 h) of 17.1 ± 4.24 µM. Also, in the series with HAdV5-GFP, the inhibition at 10 µM came out at 86.3 ± 6.35%.
The compound `CC(C)(C)OC(=O)N1CCN(C(=O)Nc2ccc(C(F)(F)F)cc2)C(c2ccccc2)C1` (centres unmarked) [Compound 48, 4-tert-Butoxycarbonyl-2-phenyl-1-[(4-trifluoromethylphenyl)aminocarbonyl]piperazine] returned a CC50 at 48 h in series [1] (48 h) of 42.1 ± 28.6 µM. The inhibition at 10 µM with HAdV5-GFP worked out at 71.51 ± 0.11%.
For the compound `C[C@@H]1CN(C(=O)OC(C)(C)C)CCN1C(=S)Nc1cc(C(F)(F)F)cc(C(F)(F)F)c1` [Compound R-592], the “CMI (MIC) Ab 21R” value in series [2] stood at 3.12 µM. The “Screening, growth inhibition Ab 21R” value in series [3] is less than 50 µM.
On to `C[C@@H]1CN(C(=O)CC2CCCCC2)CCN1C(=S)Nc1cc(C(F)(F)F)cc(C(F)(F)F)c1` [Compound R-615], for which the “CMI (MIC) Ab 24” value in series [2] was 6.25 µM. The “Screening, growth inhibition Ab 24” value in series [3] is less than 50 µM.
As to `C[C@H]1CN(C(=O)OC(C)(C)C)CCN1C(=S)Nc1cc(C(F)(F)F)cc(C(F)(F)F)c1` [Compound S-592], in series [2], the “CMI (MIC) Ab 21R” value was 3.12 µM, the “CMI (MIC) Ab 22P” value worked out at 12.5 µM and the “CMI (MIC) Ab 24” value stood at 3.12 µM. Moreover, in series [3], the “Screening, growth inhibition Ab 21R” value was less than 50 µM; the “Screening, growth inhibition Ab 22P” value is less than 50 µM; the “Screening, growth inhibition Ab 24” value is less than 50 µM.
`CC1CN(C(=O)OC(C)(C)C)CCN1C(=S)Nc1ccc([N+](=O)[O-])cc1` (centres unmarked) [Vip 499]: the “CMI (MIC) Ab 14” value in series [2] (strain Ab 14, MHBII) was 25 µM. In series [2], the “CMI (MIC) Ab 21R” value was 50 µM, the “CMI (MIC) Ab 22P” value came out at 25 µM and the “CMI (MIC) Ab 24” value was found to be 25 µM. In series [3] (strain Ab 14, 50 μM), the “Screening, growth inhibition Ab 14” value was less than 50 µM. In addition, in series [3], the “Screening, growth inhibition Ab 21R” value is less than 50 µM; the “Screening, growth inhibition Ab 22P” value was less than 50 µM; the “Screening, growth inhibition Ab 24” value is less than 50 µM.
